# Target: T1, caspase-9 (Homo sapiens, UniProt P55211)
# T1 sequence (P55211 1-416): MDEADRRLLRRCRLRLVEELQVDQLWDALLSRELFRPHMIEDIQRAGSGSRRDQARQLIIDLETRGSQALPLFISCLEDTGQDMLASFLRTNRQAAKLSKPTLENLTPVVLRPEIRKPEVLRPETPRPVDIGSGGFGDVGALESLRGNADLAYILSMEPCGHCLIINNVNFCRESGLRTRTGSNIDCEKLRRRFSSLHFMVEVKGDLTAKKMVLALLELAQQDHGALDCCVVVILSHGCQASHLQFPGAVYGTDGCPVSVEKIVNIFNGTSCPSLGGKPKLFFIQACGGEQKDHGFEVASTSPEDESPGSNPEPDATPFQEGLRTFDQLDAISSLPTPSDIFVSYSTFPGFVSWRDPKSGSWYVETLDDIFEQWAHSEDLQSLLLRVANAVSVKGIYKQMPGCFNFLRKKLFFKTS
# Test: caspase-9 activity assay (Na-citrate pre-activated)
# Type: biochemical
# Details: recombinant caspase-9; MM01 5 µM (Figure 2B)
# Experimental: Caspase-9 was activated with kosmotropic salts, in particular with Na-citrate. Briefly, 5 µM caspase-9 was pre-activated for 20 min in SC buffer (50 mM Na2HPO4, 150 mM NaCl, 1.5% sucrose, 0.05% CHAPS, 10 mM DTT, 0.7 M Na-citrate, pH 7.4) at RT. Once pre-activated, the complete reaction was diluted to 100 nM caspase-9 in assay buffer without Na-Citrate and incubated 20 min at RT in the presence or absence of compounds. Enzyme activity was monitored by adding the Ac-LEHD-afc substrate (40 µM) using a Victor 2 spectrofluorimeter.
structure (smiles),measurement,value
C=CCN1C(=O)/C(=C2/C(=O)Nc3ccccc32)SC1=S [MM01],caspase-9 activity,do not act on

# From patent EP3884941A1, “INFLAMMASOME INHIBITORS AND USE THEREOF” (CENTRO DE INVESTIGACION PRINCIPE FELIPE, priority 2020, dated 2021)
